Measurements published in patent US9884818B2, “Sulphamoylpyrrolamide derivatives and the use thereof as medicaments for the treatment of hepatitis B” (Janssen Sciences Ireland UC, priority 2013, dated 2018).

How the values were obtained:
HBV [1] = test: Anti-HBV activity, HepG2.117 inducibly HBV producing cell line (Tet-off), intracellular HBV DNA by realtime PCR; assay type: cell-based; conditions: Hepatitis B virus, HepG2.117, 72 h, HepG2.117 cells, 3 days of treatment, intracellular HBV DNA; read-out: HepG2 117 EC50
HBV [2] = test: Anti-HBV activity, HepG2.2.15 stable transfected cell line, HBV DNA from secreted virions by realtime PCR; assay type: cell-based; conditions: Hepatitis B virus, HepG2.2.15, 144 h, HepG2.2.15 cells, 6 days of treatment, HBV DNA from secreted virions; read-out: HepG2 2.15 EC50
[3] = Cytotoxicity in HepG2 cells, Resazurin viability assay; conditions: human, HepG2 cells, HepG2 4 days CC50 (μM), incubated for 4 days, Resazurin assay

| SMILES | EC50 (HBV [1]) [µM] | EC50 (HBV [2]) [µM] | CC50 at 4 days [3] [µM] |
| --- | --- | --- | --- |
| C[C@@H](NS(=O)(=O)c1cn(C)c(C(=O)Nc2ccc(F)c(C#N)c2F)c1Cl)C(F)(F)F [Compound 276, 3-chloro-N-(3-cyano-2,4-difluoro-phenyl)-1-methyl-4-[[(1R)-2,2,2-trifluoro-1-methyl-ethyl]sulfamoyl]pyrrole-2-carboxamide] | 0.01 | 0.01 | > 25 |
| Cc1cc(NC(=O)c2c(C)c(S(=O)(=O)NC3(C)COC3)c(C)n2C)ccc1F [Compound 88, N-(4-Fluoro-3-methylphenyl)-1,3,5-trimethyl-4-[(3-methyloxetan-3-yl)sulfamoyl]-1H-pyrrole-2-carboxamide] | 0.03 | 0.02 | > 25 |
| C[C@H](NS(=O)(=O)c1cc(C(=O)Nc2cc(F)c(F)c(Cl)c2)n(C)c1)C(F)(F)F [Compound 103, N-(3-Chloro-4,5-difluorophenyl)-1-methyl-4-{[(1S)-2,2,2-trifluoro-1-methylethyl]sulfamoyl}-1H-pyrrole-2-carboxamide] | 0.02 | 0.05 | > 25 |
| Cn1cc(S(=O)(=O)NC2(C(F)(F)F)CCOC2)cc1C(=O)Nc1ccc(F)c(C#N)c1 (single isomer, unassigned) [Compound 228a, N-(3-Cyano-4-fluorophenyl)-1-methyl-4-{[3-(trifluoromethyl)tetrahydrofuran-3-yl]sulfamoyl}-1H-pyrrole-2-carboxamide] | 0.03 | 0.03 | > 25 |
| C[C@H](CO)NS(=O)(=O)c1cc(C(=O)Nc2ccc(F)c(C(F)F)c2)n(C)c1 [Compound 40, N-[3-(difluoromethyl)-4-fluoro-phenyl]-4-[[(1R)-2-hydroxy-1-methyl-ethyl]sulfamoyl]-1-methyl-pyrrole-2-carboxamide] | 0.12 | 0.2 | > 25 |
| Cn1cc(S(=O)(=O)NC(C)(C)CF)cc1C(=O)Nc1ccc(F)c(Cl)c1F [Compound 261] | 0.13 | 0.04 | > 25 |
| C[C@@H](NS(=O)(=O)c1cn(C)c(C(=O)Nc2cccc(Br)c2)c1Cl)C(F)(F)F [Compound 250, N-(3-Bromophenyl)-3-chloro-1-methyl-4-{[(1R)-2,2,2-trifluoro-1-methylethyl]sulfamoyl}-1H-pyrrole-2-carboxamide] | 0.4 | 0.007 | 20 |
| C[C@@H](NS(=O)(=O)c1cn(C)c(C(=O)Nc2ccc(F)c(C(F)F)c2)c1Cl)C(F)(F)F [Compound 279, 3-chloro-N-[3-(difluoromethyl)-4-fluoro-phenyl]-1-methyl-4-[[(1R)-2,2,2-trifluoro-1-methyl-ethyl]sulfamoyl]pyrrole-2-carboxamide] | 0.005 | < 0.004 | > 25 |
| Cn1cc(S(=O)(=O)NC2(C)COC2)c(F)c1C(=O)Nc1ccc(F)c(C#N)c1 [Compound 113, N-(3-cyano-4-fluoro-phenyl)-3-fluoro-1-methyl-4-[(3-methyloxetan-3-yl)sulfamoyl]pyrrole-2-carboxamide] | 0.02 | 0.03 | > 25 |
| Cn1cc(S(=O)(=O)NC2(C)COC2)c(F)c1C(=O)Nc1cc(F)c(F)cc1F [Compound 109, 3-Fluoro-1-methyl-4-[(3-methyloxetan-3-yl)sulfamoyl]-N-(2,4,5-trifluorophenyl)-1H-pyrrole-2-carboxamide] | 0.1 | 0.24 | > 25 |
| Cn1cc(S(=O)(=O)NC(C)(C)C)c(F)c1C(=O)Nc1ccc(F)c(F)c1 [Compound 211, 4-(tert-Butylsulfamoyl)-N-(3,4-difluorophenyl)-3-fluoro-1-methyl-1H-pyrrole-2-carboxamide] | 0.04 | 0.04 | > 25 |
| CC(C)n1cc(S(=O)(=O)N[C@H](C)C(F)(F)F)c(Cl)c1C(=O)Nc1ccc(F)c(C#N)c1 [Compound 291, 3-chloro-N-(3-cyano-4-fluoro-phenyl)-1-isopropyl-4-[[(1R)-2,2,2-trifluoro-1-methyl-ethyl]sulfamoyl]pyrrole-2-carboxamide] | 0.39 | 0.42 | > 25 |
| Cn1cc(S(=O)(=O)N[C@H]2CCOC2)cc1C(=O)Nc1ccc(F)c(C(F)(F)F)c1 [Compound 42, N-[4-fluoro-3-(trifluoromethyl)phenyl]-1-methyl-4-[[(3S)-tetrahydrofuran-3-yl]sulfamoyl]pyrrole-2-carboxamide] | 0.72 | 0.54 | > 25 |
| Cn1cc(S(=O)(=O)NC2(C)COC2)cc1C(=O)Nc1cc(F)c(F)c(F)c1 [Compound 27, 1-methyl-4-[(3-methyloxetan-3-yl)sulfamoyl]-N-(3,4,5-trifluorophenyl)pyrrole-2-carboxamide] | 0.06 | 0.04 | > 25 |
| CC[C@H](NS(=O)(=O)c1cc(C(=O)Nc2ccc(F)c(C#N)c2)n(C)c1)C(F)(F)F [Compound 239, N-(3-Cyano-4-fluorophenyl)-1-methyl-4-{[(1S)-1-(trifluoromethyl)-propyl]sulfamoyl}-1H-pyrrole-2-carboxamide] | 0.01 | 0.02 | > 25 |
| Cc1cc(NC(=O)c2cc(S(=O)(=O)NC(C)C)cn2C)cc(F)c1F [Compound 33, N-(3,4-difluoro-5-methyl-phenyl)-4-(isopropylsulfamoyl)-1-methyl-pyrrole-2-carboxamide] | 0.04 | 0.03 | > 25 |
| Cn1cc(S(=O)(=O)NC2(C)CC(F)(F)C2)c(F)c1C(=O)Nc1ccc(F)c(C#N)c1 [Compound 187, N-(3-Cyano-4-fluorophenyl)-4-[(3,3-difluoro-1-methylcyclobutyl)sulfamoyl]-3-fluoro-1-methyl-1H-pyrrole-2-carboxamide] | 0.006 | 0.008 | > 25 |
| Cc1cc(NC(=O)c2cc(S(=O)(=O)NC3(C)COC3)c(C)n2C)ccc1F [Compound 89, N-(4-Fluoro-3-methylphenyl)-1,5-dimethyl-4-[(3-methyloxetan-3-yl)sulfamoyl]-1H-pyrrole-2-carboxamide] | 0.02 | 0.02 | > 25 |
| Cn1cc(S(=O)(=O)NCC(F)F)cc1C(=O)Nc1ccc(F)c(F)c1 [Compound 129, 4-[(2,2-Difluoroethyl)sulfamoyl]-N-(3,4-difluorophenyl)-1-methyl-1H-pyrrole-2-carboxamide] | 0.08 | 0.17 | > 25 |
| Cn1cc(S(=O)(=O)NC2CC(F)(F)C2)cc1C(=O)Nc1cc(F)c(F)c(Cl)c1 [Compound 164, N-(3-Chloro-4,5-difluorophenyl)-4-[(3,3-difluorocyclobutyl)sulfamoyl]-1-methyl-1H-pyrrole-2-carboxamide] | 0.13 | 0.13 | > 25 |
| Cn1cc(S(=O)(=O)NC(C)(C)C)c(Cl)c1C(=O)Nc1ccc(F)c(Cl)c1 [Compound 220, 4-(tert-Butylsulfamoyl)-3-chloro-N-(3-chloro-4-fluorophenyl)-1-methyl-1H-pyrrole-2-carboxamide] | 0.04 | 0.1 | > 25 |
| Cn1cc(S(=O)(=O)NC(C)(C)C)cc1C(=O)Nc1ccc(F)c(Cl)c1F [Compound 194, 4-(tert-Butylsulfamoyl)-N-(3-chloro-2,4-difluorophenyl)-1-methyl-1H-pyrrole-2-carboxamide] | 0.05 | 0.09 | > 25 |
| C[C@H](CO)NS(=O)(=O)c1cc(C(=O)Nc2ccc(F)c(F)c2)n(C)c1 [Compound 24, N-(3,4-difluorophenyl)-4-[[(1R)-2-hydroxy-1-methyl-ethyl]sulfamoyl]-1-methyl-pyrrole-2-carboxamide] | 0.3 | 0.2 | > 25 |
| Cn1cc(S(=O)(=O)NC(C)(C)C)cc1C(=O)Nc1ccc(F)c(OC(F)(F)F)c1 [Compound 98, 4-(tert-Butylsulfamoyl)-N-[4-fluoro-3-(trifluoromethoxy)phenyl]-1-methyl-1H-pyrrole-2-carboxamide] | 0.54 | 0.81 | > 25 |
| Cc1c(S(=O)(=O)N[C@@H](C)C(F)(F)F)cn(C)c1C(=O)Nc1ccc(F)c(C#N)c1 [Compound 151, N-(3-Cyano-4-fluorophenyl)-1,3-dimethyl-4-{[(1S)-2,2,2-trifluoro-1-methylethyl]sulfamoyl}-1H-pyrrole-2-carboxamide] | 0.07 | 0.08 | > 25 |
| CC(C)NS(=O)(=O)c1cc(C(=O)Nc2cc(F)c(F)c(Br)c2)n(C)c1 [Compound 46, N-(3-bromo-4,5-difluoro-phenyl)-4-(isopropylsulfamoyl)-1-methyl-pyrrole-2-carboxamide] | 0.17 | 0.12 | > 25 |
| Cc1c(F)ccc(NC(=O)c2c(Cl)c(S(=O)(=O)N[C@H](C)C(F)(F)F)cn2C)c1C#N [Compound 272, 3-chloro-N-(2-cyano-4-fluoro-3-methyl-phenyl)-1-methyl-4-[[(1R)-2,2,2-trifluoro-1-methyl-ethyl]sulfamoyl]pyrrole-2-carboxamide] | 0.76 | 0.3 | > 25 |
| Cc1cc(NC(=O)c2cc(S(=O)(=O)NC3(C)COC3)cn2C)cc(C)c1F [Compound 80, N-(4-Fluoro-3,5-dimethylphenyl)-1-methyl-4-[(3-methyloxetan-3-yl)sulfamoyl]-1H-pyrrole-2-carboxamide] | 0.09 | 0.04 | > 25 |
| C[C@H](NS(=O)(=O)c1cn(C)c(C(=O)Nc2ccc(F)c(C#N)c2)c1F)C(F)(F)F [Compound 188, N-(3-Cyano-4-fluorophenyl)-3-fluoro-1-methyl-4-{[(1S)-2,2,2-trifluoro-1-methylethyl]sulfamoyl}-1H-pyrrole-2-carboxamide] | 0.03 | 0.04 | > 25 |
